Like-named read-outs stand apart in the source and are kept apart here.
Key:
trypsin = test: Protease panel: trypsin
[1] = molecular target: human cathepsin B (hCTSB) (Homo sapiens, UniProt P07858); test: hCTSB biochemical assay
[2] = molecular target: mouse cathepsin B (mCTSB) (Mus musculus, UniProt P10605); test: mCTSB biochemical assay; conditions: read-out: pIC50 (mouse CTSB) (converted)
thrombin = molecular target: T1, thrombin (Homo sapiens, UniProt P00734); test: Protease panel: thrombin; assay type: biochemical
T1 construct: preincubated with thrombin (10 nM, Sigma); purchased Sigma-Aldrich

physchem = conditions: pH 7.4
Neutrophil Elastase 2 = molecular target: T2, Neutrophil Elastase 2 (Homo sapiens, UniProt P08246); test: Protease panel: Neutrophil Elastase 2; assay type: biochemical
T2 construct: neutrophils; tissue Eurofins Discovery (assay service); host or cells: human neutrophils
T2 sequence (P08246 30-267): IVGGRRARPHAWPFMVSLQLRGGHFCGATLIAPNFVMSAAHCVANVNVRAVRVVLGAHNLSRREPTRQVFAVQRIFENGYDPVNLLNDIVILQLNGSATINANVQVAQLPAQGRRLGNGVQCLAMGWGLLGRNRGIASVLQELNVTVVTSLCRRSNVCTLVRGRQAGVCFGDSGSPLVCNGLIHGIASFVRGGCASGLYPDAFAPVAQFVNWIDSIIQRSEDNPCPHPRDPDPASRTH

in vitro [3] = conditions: mouse, plasma, mouse plasma protein binding
in vitro [4] = conditions: mouse, microsomes, pH 7.4
SARS-CoV = test: microbe, parasite or virus in culture; assay type: cell-based; conditions: Severe acute respiratory syndrome coronavirus, read-out: pEC50 (SARS-CoV CPE reduction assay) (converted)
SARS-CoV-2 M^pro = SARS-CoV-2 M^pro (Severe acute respiratory syndrome coronavirus 2, UniProt P0DTD1); test: biochemical; assay type: biochemical; conditions: read-out: M^pro biochemical assay pIC50 (converted)
[5] = Mouse liver microsomal stability; conditions: microsomes, pH 7.4
[6] = microsomes, 10 µM, pH 7.4
MERS-CoV = test: microbe, parasite or virus in culture; assay type: cell-based; conditions: Middle East respiratory syndrome-related coronavirus, Huh-7, read-out: pEC50 (MERS-CoV CPE reduction assay) (converted)

mouse cathepsin B (mCTSB), sequence (P10605 80-339): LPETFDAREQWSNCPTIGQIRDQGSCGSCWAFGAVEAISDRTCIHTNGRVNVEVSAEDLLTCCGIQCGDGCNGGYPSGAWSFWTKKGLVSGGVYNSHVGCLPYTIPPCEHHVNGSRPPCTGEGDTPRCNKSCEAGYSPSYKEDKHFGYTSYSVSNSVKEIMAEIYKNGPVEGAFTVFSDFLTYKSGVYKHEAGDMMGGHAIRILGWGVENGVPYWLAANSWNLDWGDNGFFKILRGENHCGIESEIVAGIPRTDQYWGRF

Compound	Trypsin inhibition at 10 μM (trypsin) [%]	hCTSB biochemical assay pIC50 [1]	inhibition at 10 µM (thrombin) [%]	logD at 1 h (physchem)	inhibition at 10 µM (Neutrophil Elastase 2) [%]	fraction unbound at 3 h, 2 µM (in vitro [3]; fraction bound (Fb))	fraction unbound at 3 h, 2 µM (in vitro [3]; fraction unbound (Fu))	other results
CC(C)(O)c1c(F)c(F)c(OCC(=O)[C@H](C[C@@H]2CCNC2=O)NC(=O)[C@@H]2[C@@H]3[C@H](CN2C(=O)[C@@H](NC(=O)C(F)(F)F)C(C)(C)C)C3(C)C)c(F)c1F [compound 14, (1R,2S,5S)-3-((S)-3,3-Dimethyl-2-(2,2,2-trifluoroacetamido)butanoyl)-6,6-dimethyl-N-((S)-3-oxo-1-((S)-2-oxopyrrolidin-3-yl)-4-(2,3,5,6-tetrafluoro-4-(2-hydroxypropan-2-yl)phenoxy)butan-2-yl)-3-azabicyclo[3.1.0]hexane-2-carboxamide]	10.2 ± 3.3	< 4.30	4.1 ± 1.5	2.52	4	0.0076	0.0076	hCTSB activity (in words) ([1]; biochemical assay): no hCTSL and hCTSB activity was observed; IC50 [2]: 5010 nM
COc1cccc2[nH]c(C(=O)N[C@@H](Cc3cccc(F)c3)C(=O)N[C@@H](C[C@@H]3CCNC3=O)C(=O)COc3c(F)c(F)c(CO)c(F)c3F)cc12 [compound 1, N-((S)-3-(3-Fluorophenyl)-1-oxo-1-(((S)-3-oxo-1-((S)-2-oxopyrrolidin-3-yl)-4-(2,3,5,6-tetrafluoro-4-(hydroxymethyl)phenoxy)butan-2-yl)amino)propan-2-yl)-4-methoxy-1H-indole-2-carboxamide]	-3.4 ± 9.0	6.36	0.2 ± 1.1	1.65	2	0.0194	0.0194	microsomal CLint at 1 µM (in vitro [4]): 586 µL/min/mg; remaining at 1 h, 1 µM (in vitro [4]): 0%; EC50 (SARS-CoV): 302 nM; IC50 (SARS-CoV-2 M^pro): 2.45 nM; half-life at 1 µM [5]: 1.18 min; Peak area (%) by LCMS, mouse liver microsomal stability assay of 1 ([6]; 0 h): 100%; Peak area (%) by LCMS, mouse liver microsomal stability assay of 1 ([6]; 5 min): 86.9%; Peak area (%) by LCMS, mouse liver microsomal stability assay of 1 ([6]; 0.25 h): 67.9%; Peak area (%) by LCMS, mouse liver microsomal stability assay of 1 ([6]; 0.5 h): 48.7%; Peak area (%) by LCMS, mouse liver microsomal stability assay of 1 ([6]; 0.75 h): 35.8%; Peak area (%) by LCMS, mouse liver microsomal stability assay of 1 ([6]; 1 h): 32.6%; EC50 (MERS-CoV): 5.25 nM

Reference: PMC12169608, “Peptidomimetic Phenoxymethyl Ketone Warheads as Potent Dual-Mode Inhibitors against SARS-CoV‑2 M^pro and Cathepsin” (Journal of Medicinal Chemistry, 2025)
